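Five compound concentrations were applied to cells in 96-well plates for 48 hours; endpoints were derived by simple linear interpolation of the resulting dose-response curve. GI50: concentration for 50% inhibition of growth. The concentration for full growth arrest is given as TGI.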
Legend:
Assay in all cases: NCI-60 cell line screen, 48 h
UACC-257 melanoma = system: UACC-257 melanoma
EKVX NSCLC = system: EKVX NSCLC
MALME-3M melanoma = system: MALME-3M melanoma
NCI-H460 lung = system: NCI-H460 lung
A549 NSCLC = system: A549 NSCLC
IGROV1 ovarian = system: IGROV1 ovarian
SR leukemia = system: SR leukemia
SN12C renal = system: SN12C renal
DLD-1 colon = system: DLD-1 colon
NCI-H226 lung = system: NCI-H226 lung

Row | Structure (SMILES) | TGI (UACC-257 melanoma) [µM] | TGI (EKVX NSCLC) [µM] | TGI (MALME-3M melanoma) [µM] | TGI (NCI-H460 lung) [µM] | TGI (A549 NSCLC) [µM] | TGI (IGROV1 ovarian) [µM] | TGI (SR leukemia) [µM] | TGI (SN12C renal) [µM] | TGI (DLD-1 colon) [µM] | TGI (NCI-H226 lung) [µM] | GI50 (UACC-257 melanoma) [µM] | GI50 (EKVX NSCLC) [µM] | GI50 (MALME-3M melanoma) [µM] | GI50 (NCI-H460 lung) [µM] | GI50 (A549 NSCLC) [µM] | GI50 (IGROV1 ovarian) [µM] | GI50 (SR leukemia) [µM] | GI50 (NCI-H226 lung) [µM] | GI50 (SN12C renal) [µM]
1 | Cc1ccc(S(=O)(=O)OCC(=O)O)cc1 | > 100 | > 100 | > 100 | > 100 | > 100 | > 100 | > 100 | > 100 | – | – | – | – | – | – | – | – | – | – | –
2 | CCCCCC(=O)NC(=S)Nc1nn[nH]n1 | > 100 | > 100 | > 100 | > 100 | > 100 | > 100 | > 100 | > 100 | – | – | – | – | – | – | – | – | – | – | –
3 | COc1cc(Nc2c3ccccc3nc3ccccc23)ccc1NS(C)(=O)=O | 24.2 | 23.1 | 21.7 | 12 | 12.3 | 36.3 | 15.2 | 9.32 | 22 | 23.5 | – | – | – | – | – | – | – | – | –
4 | N=C(N)c1ccc(N=Nc2c(O)ccc3c2[nH]c2ccccc23)cc1 | > 89.1 | > 100 | > 80.8 | – | – | > 100 | – | > 83.4 | – | > 90.6 | – | – | – | – | – | – | – | – | –
5 | COc1ccc(/C(Cl)=C(\C=O)c2ccc(F)cc2)cc1OC | – | 65.4 | 72 | 43 | – | > 100 | – | 77.1 | 78.4 | 47.2 | – | – | – | – | – | – | – | – | –
6 | C[C@]12CCc3nc(Nc4ccccc4)sc3C1=CC[C@@H]1[C@@H]2CC[C@]2(C)/C(=N/NC(N)=S)CC[C@@H]12 | > 100 | > 100 | > 100 | > 100 | > 100 | > 100 | > 100 | > 100 | – | 5.71 | 6.1 | 19.2 | 3 | 6.14 | 8.5 | 3.89 | 1.71 | 2.07 | 3.52
7 | O=C(NC(Cc1ccc(I)cc1)C(=O)O)c1ccc(Br)cc1 (stereo not drawn) | > 100 | 31 | > 100 | > 100 | > 100 | > 100 | – | > 100 | > 100 | > 100 | – | – | – | – | – | – | – | – | –
8 | Nc1ccc(N=Nc2ccccc2)cc1 | > 100 | > 100 | > 100 | > 100 | > 100 | > 100 | > 100 | > 100 | – | > 100 | – | – | – | – | – | – | – | – | –
9 | COc1ccc(O)cc1 | > 100 | > 100 | > 100 | > 100 | > 100 | > 100 | > 100 | > 100 | > 100 | > 100 | – | – | – | – | – | – | – | – | –
10 | Nc1ccc2[nH]c3c(-c4ccccc4)nccc3c2c1 | > 100 | > 100 | > 100 | > 100 | > 100 | > 100 | – | > 100 | > 100 | > 86.1 | – | – | – | – | – | – | – | – | –
11 | Cc1[nH]c(=O)[nH]c(=O)c1/C=C/C(=O)O | > 1000 | > 1000 | > 1000 | > 1000 | > 1000 | > 1000 | – | > 1000 | > 1000 | > 1000 | – | – | – | – | – | – | – | – | –
